Target: PAS domain-containing serine/threonine-protein kinase (Homo sapiens, UniProt Q96RG2)
Assay: Inhibition of GST-tagged human recombinant PASK expressed in Baculovirus based system using Ulight-peptide substrate incubated for 2 hrs by TR-FRET assay

PAS domain-containing serine/threonine-protein kinase, sequence (Q96RG2 whole entry, the tested form may be a part): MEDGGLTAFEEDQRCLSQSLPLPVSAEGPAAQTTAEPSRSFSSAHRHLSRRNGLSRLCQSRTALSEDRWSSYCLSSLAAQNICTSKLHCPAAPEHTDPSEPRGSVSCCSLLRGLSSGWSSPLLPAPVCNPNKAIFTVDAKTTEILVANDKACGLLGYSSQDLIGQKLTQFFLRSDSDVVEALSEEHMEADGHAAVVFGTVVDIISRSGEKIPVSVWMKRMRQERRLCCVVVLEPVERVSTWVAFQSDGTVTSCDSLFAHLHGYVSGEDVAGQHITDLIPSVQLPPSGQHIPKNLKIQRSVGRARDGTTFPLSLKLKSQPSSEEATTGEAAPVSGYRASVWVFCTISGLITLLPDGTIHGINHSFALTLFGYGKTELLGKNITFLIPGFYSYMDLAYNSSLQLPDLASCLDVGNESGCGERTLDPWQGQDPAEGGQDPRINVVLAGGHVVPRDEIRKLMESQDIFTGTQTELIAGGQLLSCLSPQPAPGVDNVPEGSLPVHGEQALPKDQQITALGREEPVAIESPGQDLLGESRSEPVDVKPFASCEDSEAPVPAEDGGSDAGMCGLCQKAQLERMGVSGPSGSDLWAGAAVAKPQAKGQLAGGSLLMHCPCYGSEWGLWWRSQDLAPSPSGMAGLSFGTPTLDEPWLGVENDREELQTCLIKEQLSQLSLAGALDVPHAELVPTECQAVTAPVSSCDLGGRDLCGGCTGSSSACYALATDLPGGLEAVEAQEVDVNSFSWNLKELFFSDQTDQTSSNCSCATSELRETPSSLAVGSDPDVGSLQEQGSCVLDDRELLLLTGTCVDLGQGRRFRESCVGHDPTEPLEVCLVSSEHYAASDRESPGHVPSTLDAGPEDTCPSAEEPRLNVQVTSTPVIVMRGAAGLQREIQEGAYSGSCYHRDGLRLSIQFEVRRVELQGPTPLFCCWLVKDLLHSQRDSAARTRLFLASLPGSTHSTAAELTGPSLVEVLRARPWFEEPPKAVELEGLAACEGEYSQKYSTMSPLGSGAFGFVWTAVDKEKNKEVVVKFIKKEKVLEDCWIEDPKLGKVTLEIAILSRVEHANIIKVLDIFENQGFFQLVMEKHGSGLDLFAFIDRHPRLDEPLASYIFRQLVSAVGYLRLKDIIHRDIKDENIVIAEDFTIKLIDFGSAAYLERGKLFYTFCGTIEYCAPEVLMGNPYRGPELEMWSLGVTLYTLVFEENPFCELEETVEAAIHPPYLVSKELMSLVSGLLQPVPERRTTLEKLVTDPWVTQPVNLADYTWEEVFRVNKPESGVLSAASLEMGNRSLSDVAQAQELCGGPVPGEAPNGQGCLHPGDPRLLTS

IC50, ≤ 10 µM:
C[C@H]1CCCCN1c1nc2cc(C(=O)O)ccc2nc1-c1cc2cc(F)ccc2o1
CN(c1nc2cc(C(=O)O)ccc2nc1-c1ccc(F)cc1)C1CCC(O)CC1 (centres undefined)
CC(C)N(C)c1nc2cc(C(=O)O)ccc2nc1-c1coc2ccc(C(F)(F)F)cc12
C[C@H]1CCCN1c1nc2cc(C(=O)O)ccc2nc1-c1coc2ccc(C(F)(F)F)cc12

Reference: ChEMBL document CHEMBL4418262, “Heterocyclic compounds for the inhibition of pask” (2016)
